Target: T1, human S1P1 receptor (Homo sapiens, UniProt P21453)
T1 construct: expressed in transfected cells; membrane preparation
Assay: GTP γ35S binding assay for S1P1 activity
Type: biochemical
Settings: membranes of cells stably expressing the S1P1 receptor, test compounds 0.08 to 5,000 nM, 30 min at 25° C.
Method: Compounds were synthesized and tested for S1P1 activity using the GTP γ^35S binding assay. These compounds may be assessed for their ability to activate or block activation of the human S1P1 receptor in cells stably expressing the S1P1 receptor.
GTP γ^35S binding was measured in the medium containing (mM) HEPES 25, pH 7.4, MgCl2 10, NaCl 100, dithitothreitol 0.5, digitonin 0.003%, 0.2 nM GTP γ^35S, and 5 μg membrane protein in a volume of 150 μl. Test compounds were included in the concentration range from 0.08 to 5,000 nM unless indicated otherwise. Membranes were incubated with 100 μM 5′-adenylylimmidodiphosphate for 30 min, and subsequently with 10 μM GDP for 10 min on ice. Drug solutions and membrane were mixed, and then reactions were initiated by adding GTP γ^35S and continued for 30 min at 25° C. Reaction mixtures were filtered over Whatman GF/B filters under vacuum, and washed three times with 3 mL of ice-cold buffer (HEPES 25, pH7.4, MgCl2 10 and NaCl 100). Filters were dried and mixed with scintillant, and counted for ^35S activity using a β-counter. Agonist-induced GTP γ^35S binding was obtained by subtracting that in the absence of agonist. Binding data were analyzed using a non-linear regression method. In case of antagonist assay, the reaction mixture contained 10 nM S1P in the presence of test antagonist at concentrations ranging from 0.08 to 5000 nM.

T1 sequence (P21453 whole entry): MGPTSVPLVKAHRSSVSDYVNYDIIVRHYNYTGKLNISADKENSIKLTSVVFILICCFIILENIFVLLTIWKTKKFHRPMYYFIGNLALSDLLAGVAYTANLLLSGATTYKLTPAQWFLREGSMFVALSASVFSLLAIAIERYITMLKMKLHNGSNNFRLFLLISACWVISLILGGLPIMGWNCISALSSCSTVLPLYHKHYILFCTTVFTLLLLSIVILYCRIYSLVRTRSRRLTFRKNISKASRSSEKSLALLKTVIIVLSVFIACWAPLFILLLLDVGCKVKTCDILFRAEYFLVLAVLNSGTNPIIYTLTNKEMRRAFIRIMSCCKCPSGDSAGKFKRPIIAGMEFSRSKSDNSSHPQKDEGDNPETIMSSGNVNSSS

EC50 [nM] | SMILES
175 | Cc1ccc(CC(c2cccc(Cl)c2)c2nc(-c3ccc(CCC(N)(CO)CO)cc3)no2)cc1C (stereo not drawn) [2-amino-2-[2-(4-{5-[1-(3-chlorophenyl)-2-(3,4-dimethylphenyl)ethyl]-1,2,4-oxadiazol-3-yl}phenyl)ethyl]propane-1,3-diol]
1210 | Cc1ccc(CC(c2nc(-c3ccc(CCC(N)(CO)CO)cc3)no2)c2cccs2)cc1C (stereo not drawn)
87.2 | Cc1ccc(CC(c2cc(F)cc(F)c2)c2nc(-c3ccc(CCC(N)(CO)CO)cc3)no2)cc1C (stereo not drawn) [Compound 1, 2-amino-2-[2-(4-{5-[1-(3,5-difluorophenyl)-2-(3,4-dimethylphenyl)ethyl]-1,2,4-oxadiazol-3-yl}phenyl)ethyl]propane-1,3-diol]
